# Measured values published in paper PMC5129982, “Screen-identified selective inhibitor of lysine demethylase 5A blocks cancer cell growth and drug resistance” (Oncotarget, 2016).
# Where two headings read alike, the source gives them in different places.
# Columns and labels:
# full-length FLAG-KDM5A = molecular target: T1, full-length FLAG-KDM5A (Homo sapiens, UniProt P29375); assay: AlphaScreen KDM5A demethylation assay; assay type: biochemical; details: for Km: cofactor of KDM5A demethylation, 24 nM FLAG-KDM5A, read-out: average apparent Km
# T1 construct: Sf21 insect cells were infected with baculovirus to express full-length FLAG-KDM5A; made in house; host or cells: Sf21 insect cells (baculovirus)
# Source text: AlphaScreen technology (PerkinElmer) was utilized to perform a screen for small molecule inhibitors of KDM5A. The assay was comprised of two steps, a demethylation reaction followed by detection of the product. A biotinylated H3K4me3 peptide was used as substrate in the demethylation reaction with KDM5A in the presence or absence of small molecule inhibitors. The presence of peptide product (H3K4me1/2) was detected using a product-specific antibody and beads. For this, acceptor beads coated in protein A bound to the antibody, which recognized the peptide product. Donor beads coated in streptavidin bound biotin on the peptide substrate. If the demethylation reaction occurred, the beads were in very close proximity and laser excitation of the donor beads at 680nm caused a transfer of energy in the form of reactive singlet oxygen, resulting in emission by the acceptor beads between 520–620 nm ([30, 31], Figure 1A). The luminescent signal detected was a proxy for the amount of demethylation that occurred.
# Reactions were carried out for 1 hour, or were stopped by addition of 30 mM EDTA every 5 minutes for determining enzyme kinetics. Km values were calculated using the Michaelis-Menten non-linear regression analysis on GraphPad Prism 6.0 software. The concentration of DMSO in demethylation reactions was 0.05%. For reactions with catalase, catalase (Sigma C30) or an equal volume of dilution buffer was added to the peptide-containing buffer before addition of the demethylase. The final concentration of catalase in the reactions was 0.01 mg/ml.
# (§1) The AlphaScreen general IgG (protein A) detection kit from PerkinElmer Life Sciences was used as described previously. The luminescence emission was recorded at 570 nm using the AlphaScreen optic module on a Pherastar (BMG Labtech) or Envision (PerkinElmer Life Sciences) microplate reader.
# IC50 values were calculated by log transformation and non-linear regression log(inhibitor) versus response(three parameters) using Graphpad Prism 6.0 software.
# FLAG-KDM5A = molecular target: T2, FLAG-KDM5A (Homo sapiens, UniProt P29375); assay: AlphaScreen screen of 8,861 compounds for KDM5A inhibitors; assay type: biochemical; details: 20 μM compound, threshold ~30% inhibition
# T2 construct: Sf21 insect cells were infected with baculovirus to express full-length FLAG-KDM5A; made in house; host or cells: Sf21 insect cells (baculovirus)
# Source text: The screen (see schematic in Figure 2A) included 8,861 compounds from selected small molecule libraries, including drugs approved for use in the clinic and diverse collections of compounds representing broad pharmacophore diversity and bioavailability. […] An inhibition threshold of three standard deviations (about 30% inhibition) identified 257 compounds. A counter-screen was used to eliminate any compounds that interfered with the assay itself by detecting the luminescent signal in the presence of the compound and positive control H3K4me2 peptide. The counter-screen validated 170 compounds. We chose 48 compounds from this list for dose-response analysis, including 42 of the top 44 compounds with the highest potency at 20 μM and 6 compounds with drug-like structures.
# 8,861 compounds from the ChemBridge MW-Set, ChemBridge DIVERSet, MicroSource Gen-Plus, MicroSource Pure Natural Products, NIH Clinical Collection, and Enzo Epigenetics libraries were screened for inhibition of FLAG-KDM5A demethylase activity. Compounds were dissolved in DMSO and added at 20 μM to 384-well white plates (Corning 3574) containing 64 nM bio-H3K4me3 peptide in demethylase buffer prior to addition of 13 nM FLAG-KDM5A. Hits were selected at a threshold of three standard deviations (~30% inhibition). A counter-screen was performed with the hits to eliminate any non-specific compounds. For this, 20 μM compounds were added to 64 nM bio-H3K4me2 peptide in demethylase buffer with no enzyme. Any hits that interfered with the positive signal detection were eliminated. Dose-response curves were performed on selected hits using 0.1–11 μM of compound. Further validation of top hits was performed using 5 μM of each compound or a dose-response curve using 0.05–50 μM of the compound.
# FLAG-KDM5B = molecular target: T3, FLAG-KDM5B (Homo sapiens, UniProt Q9UGL1); assay: AlphaScreen KDM5B demethylation assay; assay type: biochemical
# T3 construct: Full-length FLAG-KDM5B, FLAG-KDM5C, and His-FLAG-KDM6A production was detailed previously; FLAG (N); made in house
# Description: (§2) Histone demethylase assays were performed as described previously, with the exception of all enzyme reactions containing 125 μM α-KG. Enzymes were used at the following approximate concentrations in validation experiments, chosen based on their activity in AlphaScreen assays: 19 nM FLAG-KDM5A, 15 nM FLAG-KDM5B, 6 nM FLAG-KDM5C, 29 nM His-FLAG-KDM6A, and 16 nM FLAG-KDM6B. 24 nM FLAG-KDM5A was used for Km determination experiments. Reactions were carried out for 1 hour, or were stopped by addition of 30 mM EDTA every 5 minutes for determining enzyme kinetics. Km values were calculated using the Michaelis-Menten non-linear regression analysis on GraphPad Prism 6.0 software. The concentration of DMSO in demethylation reactions was 0.05%. For reactions with catalase, catalase (Sigma C30) or an equal volume of dilution buffer was added to the peptide-containing buffer before addition of the demethylase. The final concentration of catalase in the reactions was 0.01 mg/ml.
# as §1
# [1] = test system: H3K4 methylation in MCF7 cells; assay: Western blot of global H3K4 methylation, MCF7; assay type: cell-based, human; details: 48 hr
# Description: (§3) Cells were lysed as described previously. Histones were separated by centrifugation, resuspended in Laemmeli buffer, and sonicated. Protein concentration of cell lysates was measured by Bradford assay. Samples in Laemmeli buffer were boiled 10 minutes at 95°C and loaded onto 7% (whole cell lysates) or 18% (histones) SDS-PAGE gels. Membranes were blocked in 4% non-fat milk in Tris-buffered saline with 0.05% Tween (TBS-T) and incubated with primary antibodies in the same buffer or 5% bovine serum albumin in TBS-T overnight at 4°C. Membranes were incubated with secondary anti-rabbit or anti-mouse antibodies for one hour at room temperature. Blots were visualized by Thermo Scientific Pierce ECL Western Blotting Substrate (32106) or EMD Millipore Immobilon Western Chemiluminescent HRP Substrate (WBKLS0100) on film. Signal was quantified using ImageJ software.
# His-FLAG-KDM6A (UTX) = molecular target: T4, His-FLAG-KDM6A (UTX) (Homo sapiens, UniProt O15550); assay: AlphaScreen KDM6A demethylation assay; assay type: biochemical
# T4 construct: Full-length FLAG-KDM5B, FLAG-KDM5C, and His-FLAG-KDM6A production was detailed previously; His (N); FLAG (N); made in house
# Description: as §2, §1
# [2] = test system: H3K4 methylation in HeLa cells; assay: Western blot of global H3K4 methylation, HeLa; assay type: cell-based, human; details: HeLa, 48 hr
# Description: as §3
# FLAG-KDM5C = molecular target: T5, FLAG-KDM5C (Homo sapiens, UniProt P41229); assay: AlphaScreen KDM5C demethylation assay; assay type: biochemical
# T5 construct: Full-length FLAG-KDM5B, FLAG-KDM5C, and His-FLAG-KDM6A production was detailed previously; FLAG (N); made in house
# Description: as §2, §1
# [3] = molecular target: T6, FLAG-KDM6B (1043-1682) (JMJD3) (Homo sapiens, UniProt O15054); assay: AlphaScreen KDM6B demethylation assay; assay type: biochemical
# T6 construct: FLAG-KDM6B (1043-1682) was purchased from BPS Bioscience (50115); FLAG (N); purchased BPS Bioscience 50115
# Description: as §2, §1
# [4] = molecular target: FLAG-tagged full-length KDM5A (lysine demethylase 5A) (UniProt P29375)
# Chain of FLAG-tagged full-length KDM5A (lysine demethylase 5A) (P29375 whole entry): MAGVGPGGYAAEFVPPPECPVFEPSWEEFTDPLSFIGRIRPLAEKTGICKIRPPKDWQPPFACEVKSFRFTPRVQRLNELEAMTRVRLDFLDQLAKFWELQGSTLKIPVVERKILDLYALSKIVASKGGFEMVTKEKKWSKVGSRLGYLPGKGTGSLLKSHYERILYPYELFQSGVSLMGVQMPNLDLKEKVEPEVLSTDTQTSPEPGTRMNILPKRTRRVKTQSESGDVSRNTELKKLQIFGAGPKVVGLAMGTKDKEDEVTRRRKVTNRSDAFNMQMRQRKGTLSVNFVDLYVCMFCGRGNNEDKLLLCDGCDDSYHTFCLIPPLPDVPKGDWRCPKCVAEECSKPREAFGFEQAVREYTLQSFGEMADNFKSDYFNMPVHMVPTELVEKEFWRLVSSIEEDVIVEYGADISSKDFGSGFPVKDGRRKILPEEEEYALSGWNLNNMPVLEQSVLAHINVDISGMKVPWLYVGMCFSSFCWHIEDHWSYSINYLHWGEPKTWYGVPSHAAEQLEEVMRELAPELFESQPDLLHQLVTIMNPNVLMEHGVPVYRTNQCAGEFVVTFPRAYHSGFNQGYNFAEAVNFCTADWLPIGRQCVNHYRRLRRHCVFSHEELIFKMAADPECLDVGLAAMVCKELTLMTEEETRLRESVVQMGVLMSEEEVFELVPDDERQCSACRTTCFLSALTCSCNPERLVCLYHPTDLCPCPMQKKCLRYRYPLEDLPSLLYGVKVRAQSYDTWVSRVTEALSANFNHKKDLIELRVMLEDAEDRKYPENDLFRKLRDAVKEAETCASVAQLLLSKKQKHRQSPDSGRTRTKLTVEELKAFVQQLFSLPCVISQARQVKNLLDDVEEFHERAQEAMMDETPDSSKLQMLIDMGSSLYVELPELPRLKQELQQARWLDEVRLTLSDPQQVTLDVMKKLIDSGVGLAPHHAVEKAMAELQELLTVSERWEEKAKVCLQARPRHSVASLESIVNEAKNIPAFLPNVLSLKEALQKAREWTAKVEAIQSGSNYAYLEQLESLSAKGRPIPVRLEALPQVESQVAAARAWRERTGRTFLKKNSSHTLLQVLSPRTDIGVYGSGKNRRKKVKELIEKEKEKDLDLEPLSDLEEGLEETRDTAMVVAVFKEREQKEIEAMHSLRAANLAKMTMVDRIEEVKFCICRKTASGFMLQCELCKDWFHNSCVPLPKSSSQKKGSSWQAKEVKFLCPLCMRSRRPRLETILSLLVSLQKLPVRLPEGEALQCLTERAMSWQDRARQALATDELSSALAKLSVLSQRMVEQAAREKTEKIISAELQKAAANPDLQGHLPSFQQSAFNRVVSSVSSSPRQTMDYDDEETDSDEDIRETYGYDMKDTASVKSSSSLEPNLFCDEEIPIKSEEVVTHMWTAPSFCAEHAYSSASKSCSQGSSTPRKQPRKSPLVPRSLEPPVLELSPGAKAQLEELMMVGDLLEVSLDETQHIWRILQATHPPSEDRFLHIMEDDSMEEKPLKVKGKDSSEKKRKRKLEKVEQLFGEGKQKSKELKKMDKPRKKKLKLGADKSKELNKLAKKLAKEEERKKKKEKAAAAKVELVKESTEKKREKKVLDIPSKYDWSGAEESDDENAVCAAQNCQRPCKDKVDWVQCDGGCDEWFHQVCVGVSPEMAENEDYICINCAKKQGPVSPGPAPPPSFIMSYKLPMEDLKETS
# T2 sequence (P29375 whole entry): as above
# T1 sequence (P29375 whole entry): as above
# T3 sequence (Q9UGL1 whole entry): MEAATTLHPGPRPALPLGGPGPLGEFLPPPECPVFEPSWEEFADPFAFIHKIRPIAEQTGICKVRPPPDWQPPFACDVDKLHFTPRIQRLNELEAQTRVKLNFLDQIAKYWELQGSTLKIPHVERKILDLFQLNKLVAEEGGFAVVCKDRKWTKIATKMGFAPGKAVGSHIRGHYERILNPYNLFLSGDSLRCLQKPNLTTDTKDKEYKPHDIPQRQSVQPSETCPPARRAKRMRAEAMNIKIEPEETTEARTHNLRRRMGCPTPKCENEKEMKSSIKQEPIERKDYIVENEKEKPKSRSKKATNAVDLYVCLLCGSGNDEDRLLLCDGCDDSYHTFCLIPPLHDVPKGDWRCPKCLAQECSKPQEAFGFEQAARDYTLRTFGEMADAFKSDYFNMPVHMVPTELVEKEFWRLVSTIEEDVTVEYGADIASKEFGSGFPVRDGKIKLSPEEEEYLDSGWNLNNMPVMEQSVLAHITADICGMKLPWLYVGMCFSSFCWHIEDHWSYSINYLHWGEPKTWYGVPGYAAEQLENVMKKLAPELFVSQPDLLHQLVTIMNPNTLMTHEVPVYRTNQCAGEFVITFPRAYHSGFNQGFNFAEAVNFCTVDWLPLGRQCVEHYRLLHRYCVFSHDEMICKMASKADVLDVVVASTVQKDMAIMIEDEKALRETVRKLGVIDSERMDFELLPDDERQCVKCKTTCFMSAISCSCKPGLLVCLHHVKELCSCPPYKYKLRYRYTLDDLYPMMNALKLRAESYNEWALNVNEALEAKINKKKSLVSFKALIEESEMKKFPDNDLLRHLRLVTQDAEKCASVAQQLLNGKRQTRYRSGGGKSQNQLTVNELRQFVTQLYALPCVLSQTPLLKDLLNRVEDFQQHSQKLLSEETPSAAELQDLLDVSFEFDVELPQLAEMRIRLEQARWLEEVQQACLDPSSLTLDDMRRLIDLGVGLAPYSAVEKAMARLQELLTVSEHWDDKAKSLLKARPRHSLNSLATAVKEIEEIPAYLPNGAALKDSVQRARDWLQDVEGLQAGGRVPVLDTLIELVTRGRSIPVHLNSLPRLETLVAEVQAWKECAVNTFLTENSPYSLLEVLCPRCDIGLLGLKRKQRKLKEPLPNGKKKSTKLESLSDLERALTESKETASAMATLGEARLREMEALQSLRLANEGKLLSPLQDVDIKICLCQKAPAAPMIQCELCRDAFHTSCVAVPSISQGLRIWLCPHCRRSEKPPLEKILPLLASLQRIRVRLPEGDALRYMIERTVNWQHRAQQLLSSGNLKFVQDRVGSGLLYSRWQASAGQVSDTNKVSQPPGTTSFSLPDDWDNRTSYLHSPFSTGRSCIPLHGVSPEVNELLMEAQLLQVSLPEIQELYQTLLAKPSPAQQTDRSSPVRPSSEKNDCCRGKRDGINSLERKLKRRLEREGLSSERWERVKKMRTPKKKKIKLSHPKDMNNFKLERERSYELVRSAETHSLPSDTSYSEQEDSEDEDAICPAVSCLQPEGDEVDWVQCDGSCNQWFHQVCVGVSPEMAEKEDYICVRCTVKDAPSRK
# T5 sequence (P41229 whole entry): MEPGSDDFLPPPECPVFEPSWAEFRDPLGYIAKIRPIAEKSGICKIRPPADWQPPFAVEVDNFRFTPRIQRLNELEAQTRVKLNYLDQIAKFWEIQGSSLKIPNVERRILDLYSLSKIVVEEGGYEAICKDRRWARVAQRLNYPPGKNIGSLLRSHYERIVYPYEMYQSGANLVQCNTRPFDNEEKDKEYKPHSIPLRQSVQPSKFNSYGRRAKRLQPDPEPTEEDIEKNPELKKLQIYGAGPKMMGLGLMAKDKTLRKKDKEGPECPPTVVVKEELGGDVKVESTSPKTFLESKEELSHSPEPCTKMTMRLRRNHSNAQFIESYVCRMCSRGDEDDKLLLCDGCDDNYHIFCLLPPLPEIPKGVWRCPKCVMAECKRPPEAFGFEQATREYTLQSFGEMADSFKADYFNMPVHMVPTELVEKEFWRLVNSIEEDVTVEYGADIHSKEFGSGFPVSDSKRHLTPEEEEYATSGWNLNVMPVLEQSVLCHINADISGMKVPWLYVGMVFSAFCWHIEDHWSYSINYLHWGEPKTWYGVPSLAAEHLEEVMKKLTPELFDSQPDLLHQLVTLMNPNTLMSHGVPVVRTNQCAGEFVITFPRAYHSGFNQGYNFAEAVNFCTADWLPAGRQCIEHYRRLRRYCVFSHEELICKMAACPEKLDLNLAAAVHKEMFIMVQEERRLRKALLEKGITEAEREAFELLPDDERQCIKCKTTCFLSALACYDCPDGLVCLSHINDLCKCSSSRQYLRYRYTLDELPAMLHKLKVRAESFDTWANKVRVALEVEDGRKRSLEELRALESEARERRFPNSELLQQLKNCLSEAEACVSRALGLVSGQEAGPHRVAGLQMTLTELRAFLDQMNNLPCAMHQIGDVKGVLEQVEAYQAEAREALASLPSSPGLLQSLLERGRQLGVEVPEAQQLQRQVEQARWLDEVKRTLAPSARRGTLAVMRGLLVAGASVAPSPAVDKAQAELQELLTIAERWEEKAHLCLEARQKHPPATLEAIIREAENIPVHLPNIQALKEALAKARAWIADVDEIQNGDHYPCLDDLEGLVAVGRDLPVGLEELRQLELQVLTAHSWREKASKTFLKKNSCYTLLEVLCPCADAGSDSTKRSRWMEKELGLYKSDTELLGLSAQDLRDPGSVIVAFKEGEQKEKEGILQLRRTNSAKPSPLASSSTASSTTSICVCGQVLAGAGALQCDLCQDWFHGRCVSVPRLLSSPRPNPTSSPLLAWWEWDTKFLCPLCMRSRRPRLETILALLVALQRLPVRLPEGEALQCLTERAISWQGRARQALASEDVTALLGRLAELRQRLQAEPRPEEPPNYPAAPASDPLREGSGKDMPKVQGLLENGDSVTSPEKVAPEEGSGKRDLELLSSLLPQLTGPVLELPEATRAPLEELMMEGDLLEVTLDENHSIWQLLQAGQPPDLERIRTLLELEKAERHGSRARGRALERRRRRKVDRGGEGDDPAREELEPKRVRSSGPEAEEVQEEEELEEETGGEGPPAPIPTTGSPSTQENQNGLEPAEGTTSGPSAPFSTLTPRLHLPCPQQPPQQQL
molecule,measurement,setting,value
"[Cl-].[Cl-].[Zn+2] [ZnCl2, Zinc chloride]",concentration above which FLAG-KDM5A was sensitive,full-length FLAG-KDM5A; titration in the demethylation reaction,above 2 μM
O=C(O)/C=C/c1ccc(O)c(O)c1 [caffeic acid],outcome in the KDM5A inhibitor screen,FLAG-KDM5A,active hits
"[Cl-].[Na+] [NaCl, sodium chloride]",concentration above which FLAG-KDM5A showed little activity,full-length FLAG-KDM5A; salt titration in the demethylation reaction,more than 50 mM
C[C@](N)(Cc1ccc(O)c(O)c1)C(=O)O [methyldopa],outcome in the KDM5A inhibitor screen,FLAG-KDM5A,active hits
"O=C(O)c1ccnc(C(=O)O)c1 [2,4-PDCA, 2,4-pyridinedicarboxylic acid]",outcome in the KDM5A inhibitor screen,FLAG-KDM5A,active hits
"C=CCn1c(S)nnc1CNC(=O)c1cccc(C)c1 [YUKA2, N-[(4-allyl-5-mercapto-4H-1,2,4-triazol-3-yl)methyl]-3-methylbenzamide]",IC50,FLAG-KDM5B; AlphaScreen,> 50 µM
same,activity against KDM5B,FLAG-KDM5B; at 50 μM,no activity
same,"H3K4me3 Fold (H3K4me3/Total H3, normalized to DMSO)","[1]; MCF7, 50 μM",0.9
same,"H3K4me3 Fold (H3K4me3/Total H3, normalized to DMSO)","[1]; MCF7, 100 μM",0.8
same,IC50,His-FLAG-KDM6A (UTX),> 50 µM
same,"H3K4me3 Fold (H3K4me3/Total H3, normalized to DMSO)",[2]; 50 μM,1.6
same,"H3K4me3 Fold (H3K4me3/Total H3, normalized to DMSO)",[2]; 100 μM,1.7
same,fold less active against KDM5C (than KDM5A),FLAG-KDM5C,~5 fold
same,IC50,FLAG-KDM5C; AlphaScreen,6.56 µM
same,mode of inhibition with respect to Fe(II),full-length FLAG-KDM5A,uncompetitive with respect to Fe(II)
same,change of IC50 over a 16-fold range of α-KG concentrations,"full-length FLAG-KDM5A; 150 nM H3K4me3 peptide, 50 μM Fe(II)",did not change significantly
same,enzyme inhibition at low Fe(II),full-length FLAG-KDM5A; 5 μM Fe(II),too weak to generate robust IC50 curves
same,effect of catalase on inhibitory potency against KDM5A,full-length FLAG-KDM5A; 0.01 mg/ml catalase,did not affect
same,IC50,"full-length FLAG-KDM5A; AlphaScreen, 1 hour reaction, 0.05–50 μM compound",1.32 µM
same,IC50,[3],> 50 µM
C[C@@](Cc1ccc(O)c(O)c1)(NN)C(=O)O [carbidopa],outcome in the KDM5A inhibitor screen,FLAG-KDM5A,active hits
O=C(O)CCC(=O)C(=O)O [α-ketoglutarate],Km,full-length FLAG-KDM5A; listed as α-KG,~7 µM
N[C@@H](Cc1ccc(O)c(O)c1)C(=O)O [levodopa],outcome in the KDM5A inhibitor screen,FLAG-KDM5A,active hits
[Fe+2] [Fe(II)],Km,full-length FLAG-KDM5A,~3 µM
biotinylated H3K4me3 peptide,"average apparent Km of the H3K4me3 peptide: rate of the demethylation reaction over increasing peptide concentrations, product detected by AlphaScreen (24 nM FLAG-KDM5A)",[4],0.028 µM
"Cc1ccc(-n2sc3ccccc3c2=O)cc1 [PBIT, 2-4(4-methylphenyl)-1,2-benzisothiazol-3(2H)-one]",outcome in the KDM5A inhibitor screen,FLAG-KDM5A,active hits
